No end group written: not given here.
Key:
[1] = Aqueous solubility / solution behaviour of Met-12; type: physicochemical
Source text: Experiments have clearly shown that Met-12 has to be dosed as a solution, both in vitro and in vivo, to show optimal activity, and producing such solutions in a largely aqueous medium has proven to be very difficult, especially under conditions which are acceptable for intravitreal injection. Dosing of suspensions or gels of Met-12 leads to major losses of potency. […] Despite extensive development work, the only solution formulations of Met-12 which have been found involve some very low pH solution injections (≤pH 2.8) or neat DMSO injections, all of which are suboptimal for intravitreal injections.

Jurkat cells = assay: Cell viability preservation in vitro: cell confluence of Jurkat cells after 24-hour incubation with FasL; type: cell-based; conditions: recombinant His-tagged FasL along with anti-His antibody
Method: Compounds (oligopeptides) of the present disclosure were assayed for their ability to effect cell confluence following a 24-hour incubation. Jurkat cells were incubated for 24 hours with varying concentrations of compound (i.e., 200, 66.7, 22.2, 7.4, 2.5, 0.8, 0.3, and 0.1) and with or without recombinant His-tagged FasL along with an anti-His antibody. After the 24-hour incubation, cell confluence was quantified using an S3 Incucyte Imaging System (Sartorius) and a Vi-CELL XR Cell Viability Analyzer (Beckman Coulter) and compared to controls (cells incubated in the absence of compound and cells incubated with a known Fas inhibitor).

aqueous solubility [1]	Substance	loss of material upon filtration ([1]; apparently clear 10 rang/mL solution in 20 mM citrate buffer pH 2.8)	Activity: lowest concentration that prevented loss of cell confluency (Jurkat cells)
extremely poor aqueous solubility	HHIYLGAVNYIY [Met-12, H^60HIYLGAVNYIY^71]	considerable loss of material upon filtration	–
–	HHIYLGAVNYIY-NH2 [Compound A, reference compound]	–	A (cell protection at x < 1.0 μM)
–	NH2-HHIAAGAVNYIY-C(O)NH2 (H-HHIAAGAVNYIY-NH2) [Compound 6]	–	B (cell protection at 1.0 < x < 10.0 μM)
–	NH2-HHIYLGGGGGNYIY-C(O)NH2 (H-HHIYLGGGGGNYIY-NH2) [Compound 7]	–	B (cell protection at 1.0 < x < 10.0 μM)
–	NH2-HHIYLGSSSSNYIY-C(O)NH2 (H-HHIYLGSSSSNYIY-NH2) [Compound 8]	–	B (cell protection at 1.0 < x < 10.0 μM)
–	NH2-HKIYLGAVNYIY-C(O)NH2 (H-HKIYLGAVNYIY-NH2) [Compound 11]	–	B (cell protection at 1.0 < x < 10.0 μM)
–	NH2-KHIYLGAVNYIY-C(O)NH2 (H-KHIYLGAVNYIY-NH2) [Compound 10]	–	A (cell protection at x < 1.0 μM)
–	NH2-KKIYLGAVNYIY-C(O)NH2 (H-KKIYLGAVNYIY-NH2) [Compound 9]	–	B (cell protection at 1.0 < x < 10.0 μM)
